Reference: ChEMBL document CHEMBL5096221, “Discovery of a Highly Potent and Orally Bioavailable STAT3 Dual Phosphorylation Inhibitor for Pancreatic Cancer Treatment” (J Med Chem, 2022)
The source made the active and inactive calls. No cut-off for these calls is given here.

Tests used:
[1] = biological target: Mitogen-activated protein kinase 3 (Homo sapiens, UniProt P27361); assay: Inhibition of ERK1 (unknown origin)
[2] = Microsomal stability in human liver microsomes assessed as half life incubated upto 40 mins in presence of NADPH by LC-MS/MS analysis; type: ADME, Microsome
[3] = biological target: T1, Signal transducer and activator of transcription 3 (Homo sapiens, UniProt P40763); assay: Inhibition of STAT3 in human BXPC-3 cells assessed as reduction of Cyclin D1 expression at 1 to 30 nM incubated for 22 to 24 hrs by western blot analysis; type: cell-based; conditions: dose 1-30 nM, time 22-24 hrs, DDE = dose-dependent effect
[4] = biological target: T1, Signal transducer and activator of transcription 3; assay: Inhibition of STAT3 in human BXPC-3 cells assessed as inhibition of IL-6 stimulated STAT3 nuclear translocation by immunofluorescent assay; type: cell-based
[5] = biological target: T1, Signal transducer and activator of transcription 3; assay: Inhibition of STAT3 in human BXPC-3 cells assessed as inhibition of STAT3 phosphorylation at Tyr 705 at 30 nM incubated for 4 to 24 hrs by western blot analysis; type: cell-based; conditions: time 4-24 hrs, TDE = time-dependent effect
BXPC-3 [6] = assay: Inhibition of mitochondrial respiration in human BXPC-3 cells assessed as reduction in oxygen consumption rate at 1 to 30 nM incubated for 1 hr by seahorse XF96 flux analyzer; type: functional, cell-based; conditions: dose 1-30 nM, DDE = dose-dependent effect
[7] = Microsomal stability in human liver microsomes assessed as compound remaining incubated for 60 mins in presence of NADPH by LC-MS/MS analysis; type: ADME, Microsome; conditions: read-out: Stability
[8] = Microsomal stability in rat liver microsomes assessed as intrinsic clearance incubated upto 40 mins in presence of NADPH by LC-MS/MS analysis; type: ADME, Microsome; conditions: read-out: CLH
Cytochrome P450 1A2 = biological target: T2, Cytochrome P450 1A2 (Homo sapiens, UniProt P05177); assay: Inhibition of CYP1A2 in human liver microsomes using phenacetin as substrate incubated for 30 mins in presence of NADPH by HPLC analysis; type: ADME, Microsome
T2 sequence (P05177 whole entry): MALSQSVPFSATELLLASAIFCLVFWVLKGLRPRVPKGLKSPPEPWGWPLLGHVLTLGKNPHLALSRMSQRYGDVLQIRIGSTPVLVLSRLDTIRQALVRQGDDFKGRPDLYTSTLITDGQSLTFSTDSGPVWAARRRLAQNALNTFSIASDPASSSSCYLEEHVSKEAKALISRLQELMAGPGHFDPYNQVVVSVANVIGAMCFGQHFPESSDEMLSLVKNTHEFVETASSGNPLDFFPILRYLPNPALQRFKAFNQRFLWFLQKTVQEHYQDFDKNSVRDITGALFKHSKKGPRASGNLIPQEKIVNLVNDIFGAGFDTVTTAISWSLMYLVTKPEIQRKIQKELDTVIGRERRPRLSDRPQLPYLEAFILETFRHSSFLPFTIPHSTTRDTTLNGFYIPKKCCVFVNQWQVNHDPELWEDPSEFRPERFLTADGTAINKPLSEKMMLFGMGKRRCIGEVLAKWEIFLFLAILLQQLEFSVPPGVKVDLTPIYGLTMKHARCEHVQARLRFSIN

Capan-2 = assay: Anti-proliferative activity against human Capan-2 cells assessed as cell growth inhibition incubated for 72 hrs by MTS assay; type: functional, cell-based; conditions: Capan-2, 72 h
[9] = biological target: T1, Signal transducer and activator of transcription 3; assay: Inhibition of STAT3 in human Capan-2 cells assessed as reduction of Cyclin D1 expression at 30 nM incubated for 4 to 24 hrs by western blot analysis; type: cell-based; conditions: time 4-24 hrs, TDE = time-dependent effect
BXPC-3 [10] = assay: Inhibition of colony formation in human BXPC-3 cells at 3 to 10 nM incubated for 5 to 7 days by crystal violet staining assay; type: functional, cell-based; conditions: dose 3-10 nM, time 5-7 day, DDE = dose-dependent effect
CFPAC-1 = assay: Inhibition of mitochondrial respiration in human CFPAC-1 cells at 1 to 30 nM incubated for 1 hr by seahorse XF96 flux analyzer; type: functional, cell-based; conditions: dose 1-30 nM, DDE = dose-dependent effect
[11] = biological target: T3, Mitogen-activated protein kinase 13 (Homo sapiens, UniProt O15264); assay: Inhibition of p38delta (unknown origin)
T3 sequence (O15264 whole entry): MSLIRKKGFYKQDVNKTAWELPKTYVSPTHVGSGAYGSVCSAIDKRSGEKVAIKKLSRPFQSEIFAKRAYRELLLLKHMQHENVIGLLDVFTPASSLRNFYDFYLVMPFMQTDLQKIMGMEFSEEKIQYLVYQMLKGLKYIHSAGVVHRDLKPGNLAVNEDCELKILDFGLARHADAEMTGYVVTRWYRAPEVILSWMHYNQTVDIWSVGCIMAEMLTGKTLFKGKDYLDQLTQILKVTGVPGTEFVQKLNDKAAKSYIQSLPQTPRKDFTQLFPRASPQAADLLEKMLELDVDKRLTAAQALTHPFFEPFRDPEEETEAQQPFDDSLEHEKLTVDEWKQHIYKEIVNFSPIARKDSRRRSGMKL

Cytochrome P450 2C19 = Cytochrome P450 2C19 (Homo sapiens, UniProt P33261); assay: Inhibition of CYP2C19 in human liver microsomes; type: ADME, Microsome
Mus musculus [12] = assay: In vivo inhibition of STAT3 in BALB/c mouse xenografted with human BXPC-3 cells assessed as inhibition of STAT3 phosphorylation at Tyr 705 at 10 mg/kg,po administrated once daily for 8 weeks by immunohistochemical analysis; type: functional, organism-based
[13] = biological target: T1, Signal transducer and activator of transcription 3; assay: Inhibition of STAT3 in human BXPC-3 cells assessed as inhibition of IL-6 stimulated STAT3 phosphorylation at Tyr 705 at 1 to 30 nM by western blot assay; type: cell-based; conditions: dose 1-30 nM, DDE = dose-dependent effect
[14] = MRT (0 to last) in BALB/c mouse at 1 mg/kg,iv measured upto 24 hrs by LC-MS/MS analysis; type: ADME, organism-based; conditions: BALB/c, in vivo
Mus musculus [15] = assay: In vivo inhibition of STAT3 in BALB/c mouse xenografted with human BXPC-3 cells assessed as inhibition of STAT3 phosphorylation at Ser 727 at 10 mg/kg,po administrated once daily for 8 weeks by immunohistochemical analysis; type: functional, organism-based
Mus musculus [16] = assay: In vivo inhibition of STAT3 in BALB/c mouse xenografted with human BXPC-3 cells assessed as inhibition of STAT3 phosphorylation at Ser 727 at 30 mg/kg,po administrated once daily for 8 weeks by immunohistochemical analysis; type: functional, organism-based
[17] = Toxicity in BALB/c mouse xenografted with human BXPC-3 cells assessed as effect on liver at 30 mg/kg,po administrated once daily for 8 weeks by H and E staining based microscopic analysis; type: organism-based; conditions: in vivo, 1344 h
[18] = Cmax in BALB/c mouse at 10 mg/kg,po measured upto 24 hrs by LC-MS/MS analysis; type: ADME, organism-based; set-up: time < 24 hrs, dose 10 mg/kg, route po; conditions: in vivo
[19] = biological target: T1, Signal transducer and activator of transcription 3; assay: Inhibition of STAT3 in human HEK293T cells assessed as inhibition of IL-6 stimulated STAT3 phosphorylation by dual-luciferase reporter assay; type: cell-based
Cytochrome P450 3A4 = Cytochrome P450 3A4 (Homo sapiens, UniProt P08684); assay: Inhibition of CYP3A4 in human liver microsomes using testosterone as substrate in presence of NADPH by HPLC analysis; type: ADME, Microsome
[20] = biological target: T1, Signal transducer and activator of transcription 3; assay: Inhibition of STAT3 in human BXPC-3 cells assessed as inhibition of STAT3 phosphorylation at Tyr 705 at 10 nM incubated for 22 to 24 hrs by western blot analysis; type: cell-based; conditions: time 22-24 hrs

T1 sequence (P40763 whole entry): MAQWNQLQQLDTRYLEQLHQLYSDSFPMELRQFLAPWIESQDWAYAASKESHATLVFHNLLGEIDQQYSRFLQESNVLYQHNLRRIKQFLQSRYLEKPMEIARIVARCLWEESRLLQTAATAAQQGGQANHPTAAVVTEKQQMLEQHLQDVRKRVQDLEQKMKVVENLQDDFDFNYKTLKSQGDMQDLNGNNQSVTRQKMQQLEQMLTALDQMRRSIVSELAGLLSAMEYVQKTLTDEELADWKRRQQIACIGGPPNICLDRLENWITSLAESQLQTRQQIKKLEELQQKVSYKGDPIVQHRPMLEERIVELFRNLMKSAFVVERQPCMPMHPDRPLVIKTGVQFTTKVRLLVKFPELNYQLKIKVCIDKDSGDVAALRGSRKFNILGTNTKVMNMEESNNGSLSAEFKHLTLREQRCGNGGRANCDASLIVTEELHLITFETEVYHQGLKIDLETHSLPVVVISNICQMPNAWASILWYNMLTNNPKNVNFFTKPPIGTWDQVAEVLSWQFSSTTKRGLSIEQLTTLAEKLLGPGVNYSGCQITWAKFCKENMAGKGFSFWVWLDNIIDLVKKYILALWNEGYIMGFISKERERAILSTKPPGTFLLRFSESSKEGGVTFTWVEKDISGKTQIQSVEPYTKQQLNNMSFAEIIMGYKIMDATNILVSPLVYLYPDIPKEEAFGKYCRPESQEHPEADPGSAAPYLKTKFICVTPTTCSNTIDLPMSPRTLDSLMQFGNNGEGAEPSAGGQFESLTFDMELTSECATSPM
Chain of Cytochrome P450 3A4 (P08684 whole entry): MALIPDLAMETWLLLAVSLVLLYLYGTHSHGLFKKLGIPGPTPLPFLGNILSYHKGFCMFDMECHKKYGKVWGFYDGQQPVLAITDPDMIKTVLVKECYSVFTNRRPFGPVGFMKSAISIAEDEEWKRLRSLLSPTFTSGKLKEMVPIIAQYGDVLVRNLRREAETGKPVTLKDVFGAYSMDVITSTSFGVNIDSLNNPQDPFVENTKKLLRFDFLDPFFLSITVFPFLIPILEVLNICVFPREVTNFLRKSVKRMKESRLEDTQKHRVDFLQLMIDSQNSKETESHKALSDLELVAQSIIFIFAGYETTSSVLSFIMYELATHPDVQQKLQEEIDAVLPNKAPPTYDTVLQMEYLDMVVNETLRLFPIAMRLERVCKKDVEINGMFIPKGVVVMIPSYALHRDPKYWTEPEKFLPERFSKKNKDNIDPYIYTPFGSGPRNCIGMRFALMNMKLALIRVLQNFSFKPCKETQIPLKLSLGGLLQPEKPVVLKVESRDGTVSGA
Chain of Mitogen-activated protein kinase 3 (P27361 whole entry): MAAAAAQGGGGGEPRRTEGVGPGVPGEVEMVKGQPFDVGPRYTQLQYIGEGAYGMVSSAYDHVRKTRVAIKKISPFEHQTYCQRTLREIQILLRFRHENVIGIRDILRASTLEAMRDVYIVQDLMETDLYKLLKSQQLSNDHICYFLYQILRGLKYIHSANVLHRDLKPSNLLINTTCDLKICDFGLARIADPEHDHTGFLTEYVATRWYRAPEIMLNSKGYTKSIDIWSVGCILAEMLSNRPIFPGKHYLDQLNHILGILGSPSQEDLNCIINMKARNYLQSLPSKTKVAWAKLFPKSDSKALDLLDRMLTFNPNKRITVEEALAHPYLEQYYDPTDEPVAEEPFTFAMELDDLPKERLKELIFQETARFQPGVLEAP
Chain of Cytochrome P450 2C19 (P33261 whole entry): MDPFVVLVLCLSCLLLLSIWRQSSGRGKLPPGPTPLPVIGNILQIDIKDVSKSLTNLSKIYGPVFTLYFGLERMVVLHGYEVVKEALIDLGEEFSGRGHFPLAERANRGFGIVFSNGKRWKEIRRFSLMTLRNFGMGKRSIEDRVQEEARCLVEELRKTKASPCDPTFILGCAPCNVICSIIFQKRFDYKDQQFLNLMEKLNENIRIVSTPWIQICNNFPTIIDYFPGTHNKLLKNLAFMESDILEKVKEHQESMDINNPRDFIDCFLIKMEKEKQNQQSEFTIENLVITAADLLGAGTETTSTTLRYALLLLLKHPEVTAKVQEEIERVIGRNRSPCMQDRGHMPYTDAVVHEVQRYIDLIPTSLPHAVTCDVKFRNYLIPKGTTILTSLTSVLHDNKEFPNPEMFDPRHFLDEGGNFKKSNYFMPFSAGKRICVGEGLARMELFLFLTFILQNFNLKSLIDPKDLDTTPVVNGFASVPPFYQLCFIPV

## COc1ccc(-c2noc(-c3cnc(Oc4ccc5cc(C(=O)N6CCN(Cc7ccc(OCC(F)(F)F)cc7)CC6)n(C)c5c4)cn3)n2)cc1
[1]
  IC50: > 10 µM
[2]
  half-life: 1.26 h
[3]
  inhibition: Dde
[4]
  inhibition: Active
[5]
  inhibition: Tde
BXPC-3 [6]
  inhibition: Dde
[7]
  remaining at 1 h: 59.5%
[8]
  microsomal CLint: 16.9 µL/min/mg
Cytochrome P450 1A2
  IC50: > 50 µM
Capan-2
  IC50: 0.0019 µM
[9]
  inhibition: Tde
BXPC-3 [10]
  inhibition: Dde
CFPAC-1
  inhibition: Dde
[11]
  IC50: > 10 µM
Cytochrome P450 2C19
  IC50: > 50 µM
Mus musculus [12]
  inhibition: Active
[13]
  inhibition: Dde
[14]
  MRT last at 24 h: 8.1 h
Mus musculus [15]
  inhibition: Active
Mus musculus [16]
  inhibition: Active
[17]
  Activity: Non-Toxic
[18]
  Cmax: 1810 ng/mL
[19]
  IC50: 0.0053 µM
Cytochrome P450 3A4
  IC50: > 50 µM
[20]
  inhibition: Active
